Tested on: NCI-H460 tumor
Assay: In vivo biodistribution in NCI-H460 tumor bearing mice
Design: Summary: organs / Summary: Carcass / Summary: faeces: unit not given here
Conditions: for Summary: urine: in %; for Summary: Recovery: in % (unit assumed)
Method in brief: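 Biodistribution of 18F-labeled compounds was assessed in female NMRI (nu/nu) mice bearing NCI-H460 tumors, established by inoculating 5×10^6 cells 8 to 10 days beforehand. Each mouse received 185 kBq of the fluorinated tracer; at least n=3 animals per time point were sacrificed, organs excised, and radioactivity quantified with a γ-counter.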

With `N[C@@H](CCC(Cc1ccc(OCC[18F])cc1)C(=O)O)C(=O)O` (stereo partly drawn) [[^18F]-12] [(2S)-2-Amino-5-[4-(2-[^18F]fluoroethoxy)benzyl]hexanedioic acid] the “Summary: faeces” value (timepoint 1.0 h) was 0.01, the “Summary: organs” value (timepoint 1.0 h) was 12.93 and the “Tail (% Dosis/g)” value (timepoint 1.0 h) was 0.41 % Dosis/g. For the same compound, the “Thyroid (% Dosis/g)” value (timepoint 1.0 h) was 0.29 % Dosis/g, the “Tumor (% Dosis/g)” value (timepoint 1.0 h) was 6.47 % Dosis/g and the “Tumor/Tissue: Adrenals” value (timepoint 1.0 h) was 23.74. For the same compound, the “Tumor/Tissue: Blood” value (timepoint 1.0 h) was 33.90, the “Tumor/Tissue: Bone” value (timepoint 1.0 h) was 41.80 and the “Tumor/Tissue: Brain” value (timepoint 1.0 h) was 142.1. The “Tumor/Tissue: Fat” value (timepoint 1.0 h) was 302.3, the “Tumor/Tissue: Gallbladder” value (timepoint 1.0 h) was 0.88 and the “Tumor/Tissue: Heart” value (timepoint 1.0 h) was 58.14. The “Tumor/Tissue: Intestine” value (timepoint 1.0 h) was 7.45, the “Tumor/Tissue: Kidney” value (timepoint 1.0 h) was 3.12 and the “Tumor/Tissue: Liver” value (timepoint 1.0 h) was 2.99. The “Tumor/Tissue: Lung” value (timepoint 1.0 h) was 18.22, the “Tumor/Tissue: Muscle” value (timepoint 1.0 h) was 103.4 and the “Tumor/Tissue: Ovaries” value (timepoint 1.0 h) was 8.99. The “Tumor/Tissue: Pancreas” value (timepoint 1.0 h) was 1.82, the “Tumor/Tissue: Skin” value (timepoint 1.0 h) was 10.56 and the “Tumor/Tissue: Spleen” value (timepoint 1.0 h) was 4.32. For the same compound, the “Tumor/Tissue: Stomach” value (timepoint 1.0 h) was 6.88, the “Tumor/Tissue: Thyroid” value (timepoint 1.0 h) was 22.49 and the “Tumor/Tissue: Uterus” value (timepoint 1.0 h) was 8.25. For the same compound, the “Uterus (% Dosis/g)” value (timepoint 1.0 h) was 0.97 % Dosis/g, the “Summary: urine” value (timepoint 1.0 h) was 82.05 and the “Summary: Recovery” value (timepoint 1.0 h) was 98.57. The “Adrenals (% Dosis/g)” value (timepoint 2.0 h) was 0.27 % Dosis/g, the “Blood (% Dosis/g)” value (timepoint 2.0 h) was 0.08 % Dosis/g and the “Bone (% Dosis/g)” value (timepoint 2.0 h) was 0.14 % Dosis/g. The “Brain (% Dosis/g)” value (timepoint 2.0 h) was 0.05 % Dosis/g, the “Fat (% Dosis/g)” value (timepoint 2.0 h) was 0.02 % Dosis/g and the “Gallbladder (% Dosis/g)” value (timepoint 2.0 h) was 8.93 % Dosis/g. For the same compound, the “Heart (% Dosis/g)” value (timepoint 2.0 h) was 0.06 % Dosis/g, the “Intestine (% Dosis/g)” value (timepoint 2.0 h) was 1.12 % Dosis/g and the “Liver (% Dosis/g)” value (timepoint 2.0 h) was 0.87 % Dosis/g. For the same compound, the “Muscle (% Dosis/g)” value (timepoint 2.0 h) was 0.05 % Dosis/g, the “Ovaries (% Dosis/g)” value (timepoint 2.0 h) was 0.54 % Dosis/g and the “Pancreas (% Dosis/g)” value (timepoint 2.0 h) was 1.48 % Dosis/g. For the same compound, the “Skin (% Dosis/g)” value (timepoint 2.0 h) was 0.43 % Dosis/g, the “Spleen (% Dosis/g)” value (timepoint 2.0 h) was 1.29 % Dosis/g and the “Stomach (% Dosis/g)” value (timepoint 2.0 h) was 0.46 % Dosis/g. The “Summary: Carcass” value (timepoint 2.0 h) was 5.26, the “Summary: faeces” value (timepoint 2.0 h) was 1.74 and the “Summary: organs” value (timepoint 2.0 h) was 8.77. For the same compound, the “Tail (% Dosis/g)” value (timepoint 2.0 h) was 1.44 % Dosis/g, the “Thyroid (% Dosis/g)” value (timepoint 2.0 h) was 0.26 % Dosis/g and the “Tumor (% Dosis/g)” value (timepoint 2.0 h) was 7.21 % Dosis/g. For the same compound, the “Tumor/Tissue: Adrenals” value (timepoint 2.0 h) was 27.83, the “Tumor/Tissue: Blood” value (timepoint 2.0 h) was 86.51 and the “Tumor/Tissue: Bone” value (timepoint 2.0 h) was 57.86. For the same compound, the “Tumor/Tissue: Brain” value (timepoint 2.0 h) was 161.0, the “Tumor/Tissue: Fat” value (timepoint 2.0 h) was 396.0 and the “Tumor/Tissue: Gallbladder” value (timepoint 2.0 h) was 0.81. For the same compound, the “Tumor/Tissue: Heart” value (timepoint 2.0 h) was 126.5, the “Tumor/Tissue: Intestine” value (timepoint 2.0 h) was 6.58 and the “Tumor/Tissue: Kidney” value (timepoint 2.0 h) was 11.24. The “Tumor/Tissue: Liver” value (timepoint 2.0 h) was 8.46, the “Tumor/Tissue: Lung” value (timepoint 2.0 h) was 29.67 and the “Tumor/Tissue: Muscle” value (timepoint 2.0 h) was 169.9. For the same compound, the “Tumor/Tissue: Ovaries” value (timepoint 2.0 h) was 13.81, the “Tumor/Tissue: Pancreas” value (timepoint 2.0 h) was 4.90 and the “Tumor/Tissue: Skin” value (timepoint 2.0 h) was 39.91. The “Tumor/Tissue: Spleen” value (timepoint 2.0 h) was 5.82, the “Tumor/Tissue: Stomach” value (timepoint 2.0 h) was 16.25 and the “Tumor/Tissue: Thyroid” value (timepoint 2.0 h) was 35.78. For the same compound, the “Tumor/Tissue: Uterus” value (timepoint 2.0 h) was 15.37, the “Uterus (% Dosis/g)” value (timepoint 2.0 h) was 0.50 % Dosis/g and the “Summary: urine” value (timepoint 2.0 h) was 83.35. For the same compound, the “Summary: Recovery” value (timepoint 2.0 h) was 99.00, the “Adrenals (% Dosis/g)” value (timepoint 4.0 h) was 0.16 % Dosis/g and the “Blood (% Dosis/g)” value (timepoint 4.0 h) was 0.04 % Dosis/g. For the same compound, the “Bone (% Dosis/g)” value (timepoint 4.0 h) was 0.06 % Dosis/g, the “Brain (% Dosis/g)” value (timepoint 4.0 h) was 0.02 % Dosis/g and the “Fat (% Dosis/g)” value (timepoint 4.0 h) was 0.01 % Dosis/g. For the same compound, the “Gallbladder (% Dosis/g)” value (timepoint 4.0 h) was 6.45 % Dosis/g, the “Heart (% Dosis/g)” value (timepoint 4.0 h) was 0.04 % Dosis/g and the “Intestine (% Dosis/g)” value (timepoint 4.0 h) was 0.93 % Dosis/g. For the same compound, the “Muscle (% Dosis/g)” value (timepoint 4.0 h) was 0.03 % Dosis/g, the “Ovaries (% Dosis/g)” value (timepoint 4.0 h) was 0.24 % Dosis/g and the “Pancreas (% Dosis/g)” value (timepoint 4.0 h) was 0.27 % Dosis/g. For the same compound, the “Skin (% Dosis/g)” value (timepoint 4.0 h) was 0.37 % Dosis/g, the “Spleen (% Dosis/g)” value (timepoint 4.0 h) was 0.59 % Dosis/g and the “Stomach (% Dosis/g)” value (timepoint 4.0 h) was 0.21 % Dosis/g. For the same compound, the “Summary: Carcass” value (timepoint 4.0 h) was 1.09, the “Summary: faeces” value (timepoint 4.0 h) was 0.25 and the “Summary: organs” value (timepoint 4.0 h) was 6.12. For the same compound, the “Tail (% Dosis/g)” value (timepoint 4.0 h) was 0.55 % Dosis/g, the “Thyroid (% Dosis/g)” value (timepoint 4.0 h) was 0.08 % Dosis/g and the “Tumor (% Dosis/g)” value (timepoint 4.0 h) was 5.17 % Dosis/g. The “Tumor/Tissue: Adrenals” value (timepoint 4.0 h) was 41.62, the “Tumor/Tissue: Blood” value (timepoint 4.0 h) was 148.1 and the “Tumor/Tissue: Bone” value (timepoint 4.0 h) was 91.73. The “Tumor/Tissue: Brain” value (timepoint 4.0 h) was 237.6, the “Tumor/Tissue: Fat” value (timepoint 4.0 h) was 2513 and the “Tumor/Tissue: Gallbladder” value (timepoint 4.0 h) was 1.11. For the same compound, the “Tumor/Tissue: Heart” value (timepoint 4.0 h) was 153.2, the “Tumor/Tissue: Intestine” value (timepoint 4.0 h) was 5.57 and the “Tumor/Tissue: Kidney” value (timepoint 4.0 h) was 28.19. The “Tumor/Tissue: Liver” value (timepoint 4.0 h) was 18.60, the “Tumor/Tissue: Lung” value (timepoint 4.0 h) was 227.5 and the “Tumor/Tissue: Muscle” value (timepoint 4.0 h) was 185.7. The “Tumor/Tissue: Ovaries” value (timepoint 4.0 h) was 21.39, the “Tumor/Tissue: Pancreas” value (timepoint 4.0 h) was 19.41 and the “Tumor/Tissue: Skin” value (timepoint 4.0 h) was 16.05. For the same compound, the “Tumor/Tissue: Spleen” value (timepoint 4.0 h) was 8.58, the “Tumor/Tissue: Stomach” value (timepoint 4.0 h) was 24.28 and the “Tumor/Tissue: Thyroid” value (timepoint 4.0 h) was 64.78. For the same compound, the “Tumor/Tissue: Uterus” value (timepoint 4.0 h) was 23.55, the “Uterus (% Dosis/g)” value (timepoint 4.0 h) was 0.21 % Dosis/g and the “Summary: urine” value (timepoint 4.0 h) was 92.66. For the same compound, the “Summary: Recovery” value (timepoint 4.0 h) was 100.1.

Reference: US9238631B2, “Radiolabeled amino acids for diagnostic imaging” (PIRAMAL IMAGING SA, priority 2011, dated 2016)
